Test results published in the NIST ThermoML archive (doi:10.1021/acs.jced.5b00694).
± gives the expanded uncertainty stated by the source.

Tests used:
[1] = xn = mol fraction of the nth substance listed; conditions: 101 kPa, Liquid; for viscosity: 297.85 K, Cone and plate viscometry; for mass density: 298.15 K, Vibrating tube method
[2] = 297.85 K; 101 kPa; Liquid; Cone and plate viscometry

`CCCC[P+](CCCC)(CCCC)CCCC.O=C[O-]` [tetrabutylphosphonium formate] + O showed a viscosity ([1]; x2 = 0.25) of 356 ± 43 mPa·s, a viscosity ([1]; x2 = 0.5) of 146 ± 16 mPa·s and a viscosity ([1]; x2 = 0.6) of 97 ± 10 mPa·s. The viscosity ([1]; x2 = 0.74) was 48 ± 4.9 mPa·s, the viscosity ([1]; x2 = 0.8) was 35.3 ± 3.6 mPa·s and the viscosity ([1]; x2 = 0.91) was 14.4 ± 1.4 mPa·s. It also gave a mass density ([1]; x2 = 0.25) of 944 ± 1.2 kg/m3, a mass density ([1]; x2 = 0.32) of 945.2 ± 1.1 kg/m3 and a mass density ([1]; x2 = 0.5) of 948 ± 1.2 kg/m3. The mass density ([1]; x2 = 0.6) was 950.4 ± 1.4 kg/m3, the mass density ([1]; x2 = 0.74) was 955.5 ± 1 kg/m3 and the mass density ([1]; x2 = 0.8) was 959.2 ± 0.9 kg/m3. It also gave a mass density ([1]; x2 = 0.91) of 974.1 ± 0.7 kg/m3.
In the case of `O` [water], the viscosity [2] is reported as 0.9 ± 0.02 mPa·s.
With `O` [water] + CCCC[P+](CCCC)(CCCC)CCCC.O=C[O-] the viscosity ([1]; x1 = 1) was 0.9 ± 0.09 mPa·s and the mass density ([1]; x1 = 1) was 996.8 ± 0.6 kg/m3.
